The text below walks through data of US9662327B2 (AGIOS PHARMACEUTICALS, INC, priority 2011, dated 2017).

The structures appear in SMILES notation. Where only a bound is given, the exact number is not on record here.

Chain of IDH1 R132H (O75874 whole entry R132H): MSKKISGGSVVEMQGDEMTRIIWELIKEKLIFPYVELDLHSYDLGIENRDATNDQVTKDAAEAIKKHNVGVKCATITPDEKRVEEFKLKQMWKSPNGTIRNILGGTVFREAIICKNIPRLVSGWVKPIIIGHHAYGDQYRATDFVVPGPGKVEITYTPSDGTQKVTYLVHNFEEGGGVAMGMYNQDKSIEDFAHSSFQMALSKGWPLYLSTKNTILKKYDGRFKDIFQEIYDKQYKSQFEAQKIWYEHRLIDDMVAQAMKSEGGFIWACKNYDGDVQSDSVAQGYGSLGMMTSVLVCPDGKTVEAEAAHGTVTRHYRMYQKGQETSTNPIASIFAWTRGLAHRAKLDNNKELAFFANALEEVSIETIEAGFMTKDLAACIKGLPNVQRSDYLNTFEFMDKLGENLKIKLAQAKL

One experiment has as its target IDH1 R132H (Homo sapiens (Human), UniProt O75874, R132H). The experiment can be described thus: Assays for IDH1 R132H Inhibitors (NADPH/aKG, resazurin detection). The note with it: IDH1 R132H enzyme, Table 2; read-out: IDHR132H Activity. Type of experiment: biochemical. A digest of the protocol:
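Mutant enzyme in 150 mM NaCl, 10 mM MgCl2, 20 mM Tris pH 7.5, 0.03% BSA; compound in DMSO added to substrate mix of 8 uM NADPH and 2 mM aKG. Reaction ran 50 min at room temperature, then resazurin detection mix (30 μM) added for 5 min at room temperature.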
For the compound `CC(C)c1nc(N2CCN(C(=O)c3cnc4ccccn34)[C@H](C)C2)c(C#N)c2c1COC(C)(C)C2` [Compound 222, (R)-6-(4-(imidazo[1,2-a]pyridine-3-carbonyl)-3-methylpiperazin-1-yl)-8-isopropyl-3,3-dimethyl-3,4-dihydro-1H-pyrano[3,4-c]pyridine-5-carbonitrile], the IC50 lay in the range of 1 to 10 µM.

Consider `CC1CN(c2nc(C3CCCC3)c3c(c2C#N)CC(C)(C)OC3)CCN1C(=O)c1ccco1` (stereo not drawn) [Compound 147, 8-cyclopentyl-6-(4-(furan-2-carbonyl)-3-methylpiperazin-1-yl)-3,3-dimethyl-3,4-dihydro-1H-pyrano[3,4-c]pyridine-5-carbonitrile], for which the IC50 lay in the range of 1 to 10 µM.

For the compound `CC(C)[C@@H]1CN(c2nc(C3CCC3)c3c(c2C#N)CC(C)(C)OC3)CCN1C(=O)c1ccoc1` [Compound 288, (R)-8-cyclobutyl-6-(4-(furan-3-carbonyl)-3-isopropylpiperazin-1-yl)-3,3-dimethyl-3,4-dihydro-1H-pyrano[3,4-c]pyridine-5-carbonitrile], the IC50 was under 0.5 µM.

For the compound `CCOC(=O)[C@H]1CN(c2nc(C(C)C)c3c(c2C#N)CC(C)(C)OC3)CCN1C(=O)c1ccoc1` [Compound 410], the IC50 was in the range of 0.5 to 1 µM.

In the case of `CC(C)c1nc(N2CCN(C(=O)c3ccoc3)[C@H](C(C)C)C2)c(C#N)c2c1COC(C)(C)C2` [Compound 165, (R)-6-(4-(furan-3-carbonyl)-3-isopropylpiperazin-1-yl)-8-isopropyl-3,3-dimethyl-3,4-dihydro-1H-pyrano[3,4-c]pyridine-5-carbonitrile], the IC50 is under 0.5 µM.

Take `N#Cc1c(N2CCN(C(=O)c3ccoc3)CC2)nc(C2CCCCC2)c2c1CCOC2` [Compound 120, 8-cyclohexyl-6-(4-(furan-3-carbonyl)piperazin-1-yl)-3,4-dihydro-1H-pyrano[3,4-c]pyridine-5-carbonitrile]: the IC50 lay within 1 to 10 µM.

For `C[C@@H]1CN(c2nc(C3CCCCC3)c3c(c2C#N)CCOC3)CCN1C(=O)C1CC1` [Compound 375, (R)-8-cyclohexyl-6-(4-(cyclopropanecarbonyl)-3-methylpiperazin-1-yl)-3,4-dihydro-1H-pyrano[3,4-c]pyridine-5-carbonitrile], the IC50 was in the range of 1 to 10 µM.

Turning to `COCCC(=O)N1CCN(c2nc(C3CC3)c3c(c2C#N)CC(C)(C)OC3)C[C@@H]1CC(C)C` [Compound 389], the IC50 lay within 1 to 10 µM.

On to `CC(C)[C@@H]1CN(c2nc(C3CC3)c3c(c2C#N)CC(C)(C)OC3)CCN1C(=O)CC(=O)O` [Compound 418, (R)-3-(4-(5-cyano-8-cyclopropyl-3,3-dimethyl-3,4-dihydro-1H-pyrano[3,4-c]pyridin-6-yl)-2-isopropylpiperazin-1-yl)-3-oxopropanoic acid], for which the IC50 is 1 to 10 µM.

Take `CCOC(=O)C1CN(c2nc(C(C)C)c3c(c2C#N)CC(C)(C)OC3)CCN1C(=O)CCOC` (stereo not drawn) [Compound 311, ethyl 4-(5-cyano-8-isopropyl-3,3-dimethyl-3,4-dihydro-1H-pyrano[3,4-c]pyridin-6-yl)-1-(3-methoxypropanoyl)piperazine-2-carboxylate]: the IC50 is 0.5 to 1 µM.

Consider `COc1ccc(NC(=O)N2CCN(c3nc(C4CCCCC4)c4c(c3C#N)CCOC4)C[C@H]2C)cc1` [Compound 299, (R)-4-(5-cyano-8-cyclohexyl-3,4-dihydro-1H-pyrano[3,4-c]pyridin-6-yl)-N-(4-methoxyphenyl)-2-methylpiperazine-1-carboxamide], for which the IC50 was in the range of 1 to 10 µM.

Regarding `COCCC(=O)N1CCN(c2nc(C(C)C)c3c(c2C#N)CC(C)(C)OC3)C[C@H]1C` [Compound 268, (R)-8-isopropyl-6-(4-(3-methoxypropanoyl)-3-methylpiperazin-1-yl)-3,3-dimethyl-3,4-dihydro-1H-pyrano[3,4-c]pyridine-5-carbonitrile], the IC50 was 0.5 to 1 µM.

Take `CC(C)[C@@H]1CN(c2nc(C3CC3)c3c(c2C#N)CC(C)(C)OC3)CCN1C(=O)Cn1cncn1` [Compound 324, (R)-6-(4-(2-(1H-1,2,4-triazol-1-yl)acetyl)-3-isopropylpiperazin-1-yl)-8-cyclopropyl-3,3-dimethyl-3,4-dihydro-1H-pyrano[3,4-c]pyridine-5-carbonitrile]: the IC50 lay in the range of 1 to 10 µM.

With `CCCOC(=O)N1CCN(c2nc(C(C)C)c3c(c2C#N)CC(C)(C)OC3)CC1C(=O)OCC` (stereo not drawn) [Compound 364, 2-ethyl 1-propyl 4-(5-cyano-8-isopropyl-3,3-dimethyl-3,4-dihydro-1H-pyrano[3,4-c]pyridin-6-yl)piperazine-1,2-dicarboxylate], the IC50 fell in the range of 1 to 10 µM.

Take `Cc1ncoc1C(=O)N1CCN(c2nc(C(C)C)c3c(c2C#N)CC(C)(C)OC3)C[C@H]1C` [Compound 197, (R)-8-isopropyl-3,3-dimethyl-6-(3-methyl-4-(4-methyloxazole-5-carbonyl)piperazin-1-yl)-3,4-dihydro-1H-pyrano[3,4-c]pyridine-5-carbonitrile]: the IC50 was 1 to 10 µM.

In the case of `CC(C)c1nc(N2CCN(C(=O)c3ccoc3)C(c3ccccc3)C2)c(C#N)c2c1COC(C)(C)C2` (stereo not drawn) [Compound 155, 6-(4-(furan-3-carbonyl)-3-phenylpiperazin-1-yl)-8-isopropyl-3,3-dimethyl-3,4-dihydro-1H-pyrano[3,4-c]pyridine-5-carbonitrile], the IC50 was 1 to 10 µM.

For `C[C@@H]1CN(c2nc(C3CCCCC3)c3c(c2C#N)CC(C)(C)OC3)CCN1C(=O)c1ccoc1` [Compound 151, (R)-8-cyclohexyl-6-(4-(furan-3-carbonyl)-3-methylpiperazin-1-yl)-3,3-dimethyl-3,4-dihydro-1H-pyrano[3,4-c]pyridine-5-carbonitrile], the IC50 is 1 to 10 µM.

For `CC(C)c1nc(N2CCN(C(=O)c3ccco3)C(C)C2)c(C#N)c2c1COC(C)(C)C2` (stereo not drawn) [Compound 137, 6-(4-(furan-2-carbonyl)-3-methylpiperazin-1-yl)-8-isopropyl-3,3-dimethyl-3,4-dihydro-1H-pyrano[3,4-c]pyridine-5-carbonitrile], the IC50 lay within 1 to 10 µM.

As for `CC(C)[C@@H]1CN(c2nc(C3(C)CC3)c3c(c2C#N)CC(C)(C)OC3)CCN1C(=O)c1ccoc1` [Compound 386], the IC50 lay in the range of 1 to 10 µM.

Turning to `Cc1ccoc1C(=O)N1CCN(c2nc(C3CC3)c3c(c2C#N)CC(C)(C)OC3)C[C@H]1C(C)C` [Compound 193], the IC50 fell in the range of 1 to 10 µM.

Regarding `Cc1ccccc1NC(=O)N1CCN(c2nc(C3CCCCC3)c3c(c2C#N)CCOC3)C[C@H]1C` [Compound 279, (R)-4-(5-cyano-8-cyclohexyl-3,4-dihydro-1H-pyrano[3,4-c]pyridin-6-yl)-2-methyl-N-o-tolylpiperazine-1-carboxamide], the IC50 fell in the range of 1 to 10 µM.

For the compound `CC(C)[C@@H]1CN(c2nc(C3CCC3)c3c(c2C#N)CC(C)(C)OC3)CCN1C(=O)Cc1cccs1` [Compound 289, (R)-8-cyclobutyl-6-(3-isopropyl-4-(2-(thiophen-2-yl)acetyl)piperazin-1-yl)-3,3-dimethyl-3,4-dihydro-1H-pyrano[3,4-c]pyridine-5-carbonitrile], the IC50 was under 0.5 µM.

Turning to `CCOC(=O)C1CN(c2nc(C3CCCCC3)c3c(c2C#N)CCOC3)CCN1C(=O)c1ccco1` (stereo not drawn) [Compound 314, ethyl 4-(5-cyano-8-cyclohexyl-3,4-dihydro-1H-pyrano[3,4-c]pyridin-6-yl)-1-(furan-2-carbonyl) piperazine-2-carboxylate], the IC50 is 1 to 10 µM.

`C[C@@H]1CN(c2nc(C3CCCCC3)c3c(c2C#N)CCOC3)CCN1C(=O)Cc1cccs1` [Compound 185, (R)-8-cyclohexyl-6-(3-methyl-4-(2-(thiophen-2-yl)acetyl)piperazin-1-yl)-3,4-dihydro-1H-pyrano[3,4-c]pyridine-5-carbonitrile]: the IC50 fell in the range of 1 to 10 µM.

Turning to `CCCNC(=O)N1CCN(c2nc(C3CCCCC3)c3c(c2C#N)CCOC3)C[C@H]1C` [Compound 378, (R)-4-(5-cyano-8-cyclohexyl-3,4-dihydro-1H-pyrano[3,4-c]pyridin-6-yl)-2-methyl-N-propylpiperazine-1-carboxamide], the IC50 was 1 to 10 µM.

In the case of `CC(C)c1nc(N2CCN(C(=O)Cc3cccs3)[C@H](C(C)C)C2)c(C#N)c2c1COC(C)(C)C2` [Compound 195, (R)-8-isopropyl-6-(3-isopropyl-4-(2-(thiophen-2-yl)acetyl)piperazin-1-yl)-3,3-dimethyl-3,4-dihydro-1H-pyrano[3,4-c]pyridine-5-carbonitrile], the IC50 was under 0.5 µM.

`C[C@@H]1CN(c2nc(C3CCCCC3)c3c(c2C#N)CCOC3)CCN1C(=O)Cc1cccc(F)c1` [Compound 191, (R)-8-cyclohexyl-6-(4-(2-(3-fluorophenyl)acetyl)-3-methylpiperazin-1-yl)-3,4-dihydro-1H-pyrano[3,4-c]pyridine-5-carbonitrile]: the IC50 was in the range of 1 to 10 µM.

The experiment is the same for the next values; noted with them: IDH1 R132H enzyme, Table 3; read-out: R132H IC50.
`CC1CN(c2nc(C3CC3)c3c(c2C#N)CC(C)(C)OC3)CC(F)CN1C(=O)C1CC1` (stereo not drawn) [Compound 474, 6-(4-(cyclopropanecarbonyl)-6-fluoro-3-methyl-1,4-diazepan-1-yl)-8-cyclopropyl-3,3-dimethyl-3,4-dihydro-1H-pyrano[3,4-c]pyridine-5-carbonitrile]: the IC50 lay within 0.5 to 1 µM.

In the case of `CC1(C)Cc2c(C#N)c(N3CCN(C(=O)CC(F)(F)F)C(CC(F)(F)F)C3)nc(C3CC3)c2CO1` (stereo not drawn) [Compound 470, 8-cyclopropyl-3,3-dimethyl-6-(3-(2,2,2-trifluoroethyl)-4-(3,3,3-trifluoropropanoyl)piperazin-1-yl)-3,4-dihydro-1H-pyrano[3,4-c]pyridine-5-carbonitrile], the IC50 is 0.5 to 1 µM.

As for `CCOCCC(=O)N1CCN(c2nc(C3CC3)c3c(c2C#N)CC(C)(C)OC3)C[C@H]1C(C)C` [Compound 459, (R)-8-cyclopropyl-6-(4-(3-ethoxypropanoyl)-3-isopropylpiperazin-1-yl)-3,3-dimethyl-3,4-dihydro-1H-pyrano[3,4-c]pyridine-5-carbonitrile], the IC50 was under 0.5 µM.
